Experimental data: patent publication US11248024B2, “Noxa-derived, cell death-inducing peptide eMTD” (INDUSTRY-ACADEMIC COOPERATION FOUNDATION, CHOSUN UNIVERSITY, priority 2019, dated 2022)
Ends that are not written are not given here. FAM = fluorescein

Key:
HeLa cells [1] = test: Time-lapse confocal microscopy of peptide entry, Mito-DsRed2 transfected cells; format: cell-based, human; conditions: images every five seconds for 10 min
Experimental: In order to investigate the temporal order and cause relation between the introduction of eMTDΔ4 (SEQ ID NO: 2) and the damage of mitochondrial membrane and cell membrane, mitochondria were visualized by transfecting Mito-DsRed2 into HeLa cells one day before the experiment. Thereafter, eMTDΔ4 (SEQ ID NO: 2)-FAM was applied to the HeLa cells images of which were then taken every five seconds for 10 min under a confocal microscope.

HeLa cells [2] = test: Intracellular localization of FAM-labelled peptide, confocal images (TOM20, DAPI); format: cell-based, human; conditions: 5 and 10 min incubation, fixed
Experimental: In order to investigate the source that allowed the intracellular calcium influx observed in Example 4, examination was made of the site at which the peptide eMTDΔ4 (SEQ ID NO: 2) acts. In this regard, the fluorescent tracer fluorescein was labeled to the C-terminal of the peptide eMTDΔ4 (SEQ ID NO: 2) (eMTDΔ4 (SEQ ID NO: 2)-FAM). Then, HeLa cells grown on Lab-Tek chamber glass were incubated with eMTDΔ4 (SEQ ID NO: 2)-FAM for 5 and 10 min before fixation with 1% paraformaldehyde.
Mitochondria were visualized using an antibody to TOM20, which localizes to the outer membrane of the mitochondrion because MTD (SEQ ID NO: 3) is known to migrate to mitochondria, while nuclei were visualized using DAPI.

[3] = system: mitochondria isolated from livers of BalB/C mice; test: Mitochondrial swelling, absorbance at 540 nm / TEM; format: biochemical; conditions: peptides 25 μM, Ca2+ 200 μM, CsA 20 μM
Experimental: First, livers excised from 6-week-old BalB/C mice were immersed in buffer (250 mM mannitol, […], 5 mM HEPES, pH 7.4, 0.1 mM PMSF and 4 rotenone) and completely homogenized using a Teflon Potter-Elvehjem grinder (Sigma). The ground liver was centrifuged at 1000×g for 10 min at 4° C. and the supernatants were centrifuged at 10,000×g for 10 min at 4° C. The pellets thus obtained were suspended in a regeneration buffer (250 mM sucrose, 10 mM HEPES, pH 7.4, 5 mM sodium succinate, 2 mM potassium phosphate, 0.1 mM PMSF, 25 μM EGTA, and 4 rotenone).
The mitochondria thus obtained were treated with 25 μM of eMTD (SEQ ID NO: 1) or eMTDΔ4 (SEQ ID NO: 2), followed by reading absorbance at 540 nm to determine mitochondrial swelling.

HeLa = test: MTS assay, relative cell viability, HeLa; format: cell-based, human; conditions: for Viability (%): one hour treatment, Table 3
Experimental: Individual cell lines (HeLa, CT26, and B16F10) were purchased from the Korean Cell Line Bank. Dulbecco's modified Eagle's medium (DMEM), trypsin-EDTA, fetal bovine serum (FBS), and Hank's balanced salt solution (HBSS) were products from Gibco (Thermo Fisher).
Each of the cell lines was cultured in DMEM supplemented with 10% FBS in an incubator maintained at 37° C. and 5% 002.
For use in assaying the peptides eMTD (SEQ ID NO: 1) and eMTDΔ4 (SEQ ID NO: 2) synthesized in Example 1 for activity of inducing cell death, the cell line HeLa was grown to about 90% confluency in 96-well plates. The cells were washed once with HBSS buffer before treatment with the peptides of the present disclosure eMTD (SEQ ID NO: 1) and eMTDΔ4 (SEQ ID NO: 2) at concentrations of 0, 20, and 40 for one hour. Thereafter, the cells were incubated with an MTS assay agent (Promega) for one hour, followed by reading absorbance to calculate relative viability of cells.
Examination was made to see whether the peptide has the activity of inducing cell death in other cancer cell lines. In this regard, the cancer cell lines HeLa, CT26, and B16F10 were treated with eMTDΔ4 (SEQ ID NO: 2) at concentrations of 0, 20, and 40 μM.

[4] = Two-step assay, damage on lipid membrane of liposomes (TbCl3/DPA fluorescence); format: biochemical; conditions: for Relative Fluorescence Intensity: liposomes, excitation 276 nm, read at 490 nm
Experimental: In brief, DOPS, DOPE, and DOPC (Avanti Polar Lipids) were dissolved at the ratio of 2:4:3 in chloroform, followed by vaporization. The residue was again dissolved at the concentration of 2 mg/mL in TbCl3 buffer (15 mM TbCl3, 50 mM sodium citrate, 20 mM HEPES, 150 mM NaCl, pH 7.4). The lipid mixture was extruded by Mini extruder (Avanti Polar Lipids) with a 400 nm to prepare liposomes which were washed with washing buffer (150 mM NaCl, 20 mM HEPES, pH 7.4) and then resuspended in an assay buffer (50 DPA, […], 20 mM HEPES, pH 7.4). The suspension was plated into 96-well plates and treated with 0, 10, or 25 μM of eMTD (SEQ ID NO: 1) or eMTDΔ4 (SEQ ID NO: 2). After stimulation with 276 nm laser, fluorescence was read at 490 nm.

Molecule | entry of peptide into cells (HeLa cells [1]) | intracellular localization (HeLa cells [2]) | mitochondrial morphology (HeLa cells [2]) | Mitochondrial swelling, relative absorbance at 540 nm ([3]; Minute 0) [%] | Mitochondrial swelling, relative absorbance at 540 nm ([3]; Minute 10) [%] | Mitochondrial swelling, relative absorbance at 540 nm ([3]; Minute 20) [%] | Mitochondrial swelling, relative absorbance at 540 nm ([3]; Minute 30) [%] | Mitochondrial swelling, relative absorbance at 540 nm ([3]; Minute 40) [%] | Mitochondrial swelling, relative absorbance at 540 nm ([3]; Minute 50) [%] | Mitochondrial swelling, relative absorbance at 540 nm ([3]; Minute 60) [%] | Viability (%) (HeLa; 20 μM) | Viability (%) (HeLa; 40 μM) | liposome lipid membrane damage (in words) ([4]; FIGS. 10A to 10C and Table 6) | Relative Fluorescence Intensity ([4]; 10 μM) [%] | Relative Fluorescence Intensity ([4]; 25 μM) [%] | cell death activity (in words) (HeLa; FIG. 1 and Table 3)
eMTDΔ4-FAM: fluorescent tracer fluorescein labeled to the C-terminal of the peptide eMTDΔ4 (KLNFRQKLLNLISKLF-{FAM}) | diffused into the cytosol through the cell membrane bubbles | consistent with the visualized positions of mitochondria | mitochondrial fragmentation was observed | – | – | – | – | – | – | – | – | – | – | – | – | –
[Ca+2] [Ca, reference compound] | – | – | – | 100 | 77 | 75 | 73 | 72 | 70 | 70 | – | – | – | – | – | –
MPGKKARKNAQPSPARAPAELEVECATQLRRFGDKLNFRQKLLNLISKLFCSGT (cysteines drawn unpaired) [fl-Noxa, reference compound] | – | – | – | – | – | – | – | – | – | – | 101 | 106 | – | – | – | –
KLNFRQKLLNLISKLFCSGT [eMTD] | – | – | – | 100 | 86 | 78 | 71 | 68 | 68 | 67 | 61 | 63 | higher fluorescence intensity was detected | 27 | 55 | potent cell death activity
